Results as given in PubChem BioAssay (NCI).
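Five compound concentrations were applied to cells in 96-well plates for 48 hours; endpoints were derived by simple linear interpolation of the resulting dose-response curve. The concentration for 50% growth inhibition is given as GI50. TGI denotes the concentration required for complete inhibition of growth.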

Assays:
Assay in all cases: NCI-60 cell line screen, 48 h
A498 renal = tested on: A498 renal
COLO 205 colon = tested on: COLO 205 colon
DU-145 prostate = tested on: DU-145 prostate
MALME-3M melanoma = tested on: MALME-3M melanoma
MOLT-4 leukemia = tested on: MOLT-4 leukemia
NCI-H226 lung = tested on: NCI-H226 lung
PC-3 prostate = tested on: PC-3 prostate
SK-MEL-2 melanoma = tested on: SK-MEL-2 melanoma
SK-MEL-5 melanoma = tested on: SK-MEL-5 melanoma
SN12C renal = tested on: SN12C renal

N#C/C(=C\c1ccc([N+](=O)[O-])s1)c1nc2cc(Br)ccc2s1
GI50 (A498 renal): 8.05 µM | TGI (A498 renal): > 100 µM | GI50 (COLO 205 colon): 0.269 µM | TGI (COLO 205 colon): 0.844 µM | GI50 (DU-145 prostate): 0.719 µM | TGI (DU-145 prostate): > 100 µM | GI50 (MALME-3M melanoma): 0.134 µM | TGI (MALME-3M melanoma): 0.291 µM | GI50 (MOLT-4 leukemia): 0.335 µM | TGI (MOLT-4 leukemia): > 35.5 µM | GI50 (NCI-H226 lung): 0.152 µM | TGI (NCI-H226 lung): 0.335 µM | GI50 (PC-3 prostate): 0.435 µM | TGI (PC-3 prostate): 2.54 µM | GI50 (SK-MEL-2 melanoma): 0.236 µM | TGI (SK-MEL-2 melanoma): 0.672 µM | GI50 (SK-MEL-5 melanoma): 0.167 µM | TGI (SK-MEL-5 melanoma): 0.311 µM | GI50 (SN12C renal): 0.201 µM | TGI (SN12C renal): 0.576 µM

Cc1ccc2nc(CC(=O)c3ccc4ccccc4c3)c(=O)[nH]c2c1
TGI (A498 renal): > 100 µM | TGI (COLO 205 colon): > 100 µM | TGI (DU-145 prostate): > 100 µM | TGI (MALME-3M melanoma): > 100 µM | TGI (MOLT-4 leukemia): > 100 µM | TGI (NCI-H226 lung): > 100 µM | TGI (PC-3 prostate): > 100 µM | TGI (SK-MEL-2 melanoma): > 100 µM | TGI (SK-MEL-5 melanoma): > 100 µM | TGI (SN12C renal): > 100 µM

C/C=C(\C)C(=O)OC1C2C(C)C(=O)OC2C(O)C(C)C2C=CC(=O)C21C (stereo not given)
TGI (A498 renal): 53.3 µM | TGI (COLO 205 colon): 26.3 µM | TGI (DU-145 prostate): 24.7 µM | TGI (MALME-3M melanoma): 27 µM | TGI (MOLT-4 leukemia): 33.7 µM | TGI (NCI-H226 lung): 46.5 µM | TGI (PC-3 prostate): 34.1 µM | TGI (SK-MEL-2 melanoma): 34.4 µM | TGI (SK-MEL-5 melanoma): 21.4 µM | TGI (SN12C renal): 43.1 µM

COC(=O)c1cc(NC(=O)CN(CCN(CC(=O)O)CC(=O)Nc2ccc(O)c(C(=O)OC)c2)CC(=O)O)ccc1O
GI50 (A498 renal): 71.7 µM | TGI (A498 renal): > 100 µM | GI50 (COLO 205 colon): 72 µM | TGI (COLO 205 colon): > 100 µM | GI50 (DU-145 prostate): 31.9 µM | TGI (DU-145 prostate): > 100 µM | GI50 (MALME-3M melanoma): > 100 µM | TGI (MALME-3M melanoma): > 100 µM | GI50 (MOLT-4 leukemia): 28.5 µM | TGI (MOLT-4 leukemia): > 100 µM | GI50 (NCI-H226 lung): > 100 µM | TGI (NCI-H226 lung): > 100 µM | GI50 (PC-3 prostate): 96.2 µM | TGI (PC-3 prostate): > 100 µM | GI50 (SK-MEL-2 melanoma): > 100 µM | TGI (SK-MEL-2 melanoma): > 100 µM | GI50 (SK-MEL-5 melanoma): 47.2 µM | TGI (SK-MEL-5 melanoma): > 100 µM | GI50 (SN12C renal): 63.8 µM | TGI (SN12C renal): > 100 µM

NCC(=O)NC(CO)C(=O)O (stereo not given)
TGI (A498 renal): > 100 µM | TGI (COLO 205 colon): > 100 µM | TGI (DU-145 prostate): > 100 µM | TGI (MALME-3M melanoma): > 100 µM | TGI (MOLT-4 leukemia): > 100 µM | TGI (NCI-H226 lung): > 100 µM | TGI (PC-3 prostate): > 100 µM | TGI (SK-MEL-2 melanoma): > 100 µM | TGI (SK-MEL-5 melanoma): > 100 µM | TGI (SN12C renal): > 100 µM

CS(=O)(=O)N(CC(=O)O)Cc1ccccc1
TGI (A498 renal): > 100 µM | TGI (COLO 205 colon): > 100 µM | TGI (DU-145 prostate): > 100 µM | TGI (MALME-3M melanoma): > 100 µM | TGI (MOLT-4 leukemia): > 100 µM | TGI (NCI-H226 lung): > 100 µM | TGI (PC-3 prostate): > 100 µM | TGI (SK-MEL-2 melanoma): > 100 µM | TGI (SK-MEL-5 melanoma): > 100 µM | TGI (SN12C renal): > 100 µM
